The test has as its system CEM cells HIV-1 protection, formazan growth assay. Kind of test: NCI AIDS Antiviral Assay. To be noted: for IC50: measured here: growth of uninfected CEM cells. The method in brief:
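Protection of CEM cells against HIV-1 was scored from cell growth (soluble formazan) across five concentrations, with parallel uninfected cells. Lack of protection may reflect toxicity.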

The source made the active and inactive calls.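 How the source made its calls: active means compounds giving half or more protection of infected cells from virus-caused growth loss, again on retest; inactive means the rest.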

Among the data in PubChem BioAssay AID179 (DTP/NCI, 2004) are EC50, IC50 and outcome values, retold here.

In general, EC50 refers to the concentration giving half of the maximal effect. In general, IC50 refers to the concentration that gives 50% inhibition. As for `C/C(=N/NC(=O)C(N)=O)C(CC(C(=O)Nc1ccccc1C)/C(C)=N\NC(=O)C(N)=O)C(=O)Nc1ccccc1C` (stereo unspecified), the EC50 is above 158 µM and the IC50 amounted to 79.4 µM.

Regarding `Oc1cc(O)cc(-c2c(O)cc(O)cc2O)c1`, the EC50 is above 200 µM and the IC50 came to 145 µM.

Consider `Cc1cc2c(C(C)C)c(O)c(O)c(C=Nc3ccccc3O)c2c(O)c1-c1c(C)cc2c(C(C)C)c(O)c(O)c(C=Nc3ccccc3O)c2c1O`, for which the EC50 is above 200 µM and the IC50 is 3.24 µM.

Regarding `c1ccc([P+](CCN2Cc3ccccc3C2)(c2ccccc2)c2ccccc2)cc1`, the EC50 is above 200 µM and the IC50 is 3.31 µM.

Turning to `O=C(CCCC(=O)NNC(=O)Nc1ccc(N=Nc2ccccc2)cc1)NNC(=O)Nc1ccc(N=Nc2ccccc2)cc1`, the EC50 is above 200 µM and the IC50 is above 200 µM.

In the case of `COC1CC(C)(NC(C)=O)C2OC(c3ccccc3)OCC2O1` (stereo unspecified), the EC50 is above 200 µM and the IC50 was above 200 µM.

Regarding `CSCCC(N)C(=O)NCCNc1ccc(NCCNC(=O)C(N)CCSC)c2c1C(=O)c1ccccc1C2=O` (stereo unspecified), the EC50 is above 151 µM and the IC50 is 0.219 µM.

In the case of `CC(C)=CCCC(O)C1CCC2C3CCC4CCCCC4(C)C3CCC12C` (stereo unspecified), the EC50 was above 100 µM and the IC50 was determined as 87.1 µM.

For `CCOC(=O)c1c(NC(=O)C(F)(F)F)[nH]c(SSc2[nH]c(NC(=O)C(F)(F)F)c(C(=O)OCC)c2C(=O)OCC)c1C(=O)OCC`, the EC50 was above 89.1 µM and the half-inhibitory concentration (IC50) is 4.27 µM.

As to `CN(C)C(=O)N1N[C@H](c2ccccc2)[C@@H]1c1ccccc1`, the EC50 is above 200 µM and the half-inhibitory concentration (IC50) came to 135 µM.

Take `COc1ccc(OC)c2c1C=CC(Br)=CC2`: the EC50 is above 200 µM and the IC50 is 53.7 µM.

`COc1cc(N)c2c(c1)SC(c1ccccc1)C(=O)N2` (stereo unspecified): the EC50 is above 200 µM and the IC50 is 120 µM.

On to `Cc1cc2c(cc1C)[n+](=O)c(N1CCN(c3ccc([N+](=O)[O-])cc3)CC1)c(C#N)n2[O-]`, for which the EC50 is above 50.1 µM and the IC50 was above 50.1 µM.

Consider `CN(C)c1nc(N(C)C)sc(=O)n1`, for which the result was inactive.

With `COC1=CC(=O)C(CO)=CC1=O`, the EC50 is above 200 µM and the concentration for half-maximal inhibition (IC50) turned out to be 7.59 µM.

For the molecule `O=C1CCCSC(=O)N1Cc1ccccc1`, the EC50 was above 200 µM and the IC50 is above 200 µM.

`COc1ccc(OC)c(NC(=O)C(=O)C(C(=O)c2ccccc2F)C2OC(=O)c3ccccc32)c1` (stereo unspecified): the EC50 is above 275 µM and the half-inhibitory concentration (IC50) came to 13.2 µM.

With `O=C(NC1C=Nc2ccc(Cl)cc2NC1=O)c1ccc2ccccc2c1` (stereo unspecified), the EC50 was above 200 µM and the half-maximal inhibitory concentration (IC50) was above 200 µM.

In the case of `CCOC(=O)C(NC(=O)c1cccc(Cl)c1)(N1CCN(c2cc3c(cc2F)c(=O)c(C(=O)O)cn3CC)CC1)C(F)(F)F` (stereo unspecified), the EC50 is above 200 µM and the half-maximal inhibitory concentration (IC50) stood at 0.339 µM.

In the case of `C[C@H](NC1=CC(=O)C(N[C@@H](C)[C@H](O)c2ccccc2)=CC1=O)[C@H](O)c1ccccc1`, the EC50 was above 200 µM and the IC50 turned out to be 141 µM.

In the case of `CCOC(=O)C(Cl)C1(O)Cc2cccc3cccc1c23` (stereo unspecified), the EC50 was above 200 µM and the concentration for half-maximal inhibition (IC50) was found to be 110 µM.

For `O=S(=O)(c1ccccc1)C(Cl)c1cccc(Cl)c1` (stereo unspecified), the EC50 was above 63.1 µM and the half-inhibitory concentration (IC50) was above 63.1 µM.

`CC(=O)N1CCC2(C=Nc3ccccc32)CC1`: the EC50 was above 22.9 µM and the IC50 is above 22.9 µM.

Turning to `CN(C)NC(=O)/C(=C/c1ccc(Cl)cc1)NC(=O)c1ccccc1`, the EC50 was above 145 µM and the 50% inhibitory concentration (IC50) was above 145 µM.

Consider `Clc1cc(OC23CC4CC(CC(C4)C2)C3)nc(Cl)n1`, for which the EC50 is above 100 µM and the IC50 came out at 45.7 µM.

On to `Cc1cc(NS(=O)(=O)c2ccc(NC(=O)c3cccc4c(NNc5ccc(S(N)(=O)=O)cc5)c5ccccc5nc34)cc2)no1`, for which the EC50 was above 200 µM and the IC50 turned out to be 37.2 µM.

In the case of `CCN(CC)CCN(C(=Nc1ccccc1)N1CCCCC1)c1ccccc1`, the EC50 was above 200 µM and the IC50 came to 1.29 µM.

`Cc1ccc(N=NC(C(=O)c2ccccc2)C(=O)c2ccccc2)cc1`: the EC50 was above 39.8 µM and the half-maximal inhibitory concentration (IC50) turned out to be 20 µM.

With `CCSC1=C(C#N)C2(CCCCC2)C2=C(CC(C)(C)CC2=O)N1`, the EC50 is above 200 µM and the IC50 is above 200 µM.

Take `COC(=O)c1cc(C(=O)c2cc(C(=O)OC)c(OC)c(Br)c2C)c(C)c(Br)c1OC`: the EC50 was above 200 µM and the IC50 is above 200 µM.

On to `O=S(=O)(c1cc(Cl)ccc1Cl)N1CCN(S(=O)(=O)c2cc(Cl)ccc2Cl)CC1`, for which the EC50 was above 200 µM and the half-inhibitory concentration (IC50) is above 200 µM.

Take `C=CC1C(C[C@@H]2c3cc(O)c(O)cc3CCN2C(C)=O)C(C(=O)OC)=CO[C@H]1OC1OC(CO)C(O)C(O)C1O` (stereo partly specified): the result was inactive.

Regarding `O=C(O)c1cc(N=Nc2ccc(N=Nc3ccc(S(=O)(=O)O)cc3)cc2)ccc1O`, the outcome was inactive.

Turning to `CC(=O)Nc1ccc(/C=C2\C=Cc3ccccc32)cc1`, the EC50 was above 20 µM and the IC50 was 13.2 µM.

With `Cn1c(-c2cccc([N+](=O)[O-])c2)[n+](C)c2ccccc21`, the EC50 is above 200 µM and the IC50 was determined as 18.6 µM.

Consider `O=c1n(-c2ccccc2)c(=O)n2n1C1Cc3ccccc3C12` (stereo unspecified), for which the outcome was inactive.

Regarding `CCN(CC)CCOC(=O)C(Cc1cccc2ccccc12)CC1CCCO1` (stereo unspecified), the EC50 is above 200 µM and the half-maximal inhibitory concentration (IC50) is above 100 µM.

For the molecule `O=C(CN1CCN(c2ccccc2)CC1)c1ccc2[nH]c(=O)oc2c1`, the EC50 is above 200 µM and the concentration for half-maximal inhibition (IC50) was above 200 µM.

As for `NC1=NN(c2ccccc2)C(=O)C1/C(=N\NC(=O)c1cc2ccccc2cc1O)C(=O)Nc1nc([N+](=O)[O-])cs1` (stereo unspecified), the EC50 is above 12.9 µM and the IC50 was above 12.9 µM.

Turning to `CSc1c(C(=O)Nc2ccc(C)cc2)c(N)[nH]c(=O)c1C#N`, the half-maximal effective concentration (EC50) is above 95.5 µM and the concentration for half-maximal inhibition (IC50) came out at 75.9 µM.

For the molecule `CS(=O)(=O)c1nc(N)nc2nc[nH]c12`, the EC50 was above 200 µM and the half-inhibitory concentration (IC50) is above 200 µM.

On to `COc1cc(C(C)O)c[n+](Cc2ccccc2)c1` (stereo unspecified), for which the EC50 is above 302 µM and the concentration for half-maximal inhibition (IC50) was above 302 µM.

For `Cc1csc(=S)n1OC(=O)NC1CCCCC1`, the EC50 was above 912 µM and the IC50 was determined as 45.7 µM.

Turning to `Oc1[nH]c2ccccc2c1N=Nc1nc(-c2ccccc2)cs1`, the EC50 was above 200 µM and the IC50 was above 200 µM.

For `CC(=O)N(CCc1ccccc1)C(C)(C#N)c1ccccc1` (stereo unspecified), the EC50 was above 200 µM and the IC50 was above 200 µM.

For the molecule `COc1cc(/C=C/C(=O)c2cc(Cl)cc(Cl)c2O)cc(OC)c1OC`, the EC50 is above 200 µM and the IC50 is 2.04 µM.

Regarding `Cc1ccc2nc(CN3CCCCC3)cc(=O)n2c1`, the EC50 was above 151 µM and the IC50 is above 151 µM.

Take `Cc1nnc(NS(=O)(=O)c2ccc(N=NC3SC(=S)NC3=O)cc2)s1` (stereo unspecified): the EC50 was above 200 µM and the IC50 was above 200 µM.

On to `NC(=O)CN1CCN(CCCN2c3ccccc3Sc3ccc(Cl)cc32)CC1`, for which the EC50 was above 200 µM and the IC50 is 30.9 µM.

Turning to `NS(=O)(=O)c1ccc(NC(=O)C2C(=O)C(=O)N(c3ccc(S(N)(=O)=O)cc3)C2=O)cc1` (stereo unspecified), the result was inactive.

As for `CCOC(=O)c1cc(C2CCN(Cc3ccccc3)C2=O)c(C(=O)/C=C(/C)N)[nH]1` (stereo unspecified), the EC50 was above 200 µM and the IC50 stood at 158 µM.

As to `O=C1O[C@H]2[C@@H](I)[C@H]3C[C@H]2[C@H]1[C@H]3c1ccccc1`, the EC50 is above 200 µM and the concentration for half-maximal inhibition (IC50) was above 200 µM.

On to `COc1ccc(-c2onc(-c3ccc([N+](=O)[O-])cc3)c2C2=NCCCN2)cc1`, for which the EC50 was above 50.1 µM and the concentration for half-maximal inhibition (IC50) was above 50.1 µM.

As for `COC1=CC(=O)c2nc(COC(C)=O)ccc2C1=O`, the outcome was inactive.

With `CCOC(=O)[C@@]12C3C=CC(CC3)[C@]1(C(=O)c1ccccc1)C(=O)C(=O)N2c1ccccc1` (stereo partly specified), the EC50 is above 200 µM and the 50% inhibitory concentration (IC50) turned out to be 110 µM.

With `CCOC(=O)C(=CNc1cccc(NC=C(C(=O)OCC)C(=O)OCC)c1)C(=O)OCC`, the EC50 was above 200 µM and the half-inhibitory concentration (IC50) worked out at 19.1 µM.

Take `CCCCCCCCSC(SCCCCCCCC)=C1C(=O)N(c2ccccc2)N=C1C`: the EC50 is above 28.8 µM and the half-inhibitory concentration (IC50) is above 28.8 µM.

On to `Clc1cc(Cl)c2c(Cl)cc(Cl)c3c2c1N=S=N3`, for which the result was inactive.

As for `O=C(NCc1ccccc1)/C(=C/c1ccc2c(c1)OCO2)NC(=O)c1ccccc1`, the EC50 was above 200 µM and the half-maximal inhibitory concentration (IC50) was above 200 µM.

`CCCCCCCCCCCCC(=O)NCC(=O)NC(Cc1ccccc1)C(=O)Oc1ccc([N+](=O)[O-])cc1` (stereo unspecified): the EC50 was above 200 µM and the IC50 was found to be 5.25 µM.

As to `CC(=O)n1nc(-c2ccc3ccccc3c2)nc1C`, the EC50 is above 200 µM and the IC50 came to 79.4 µM.

As to `CC1(C)CC(=O)C(/C=N/C(=S)NCCc2ccccc2)=C(O)C1`, the EC50 is above 200 µM and the IC50 was above 200 µM.

Turning to `CCCC1C[C@H]2CCCCN2[C@H]2CCCN12` (stereo partly specified), the EC50 was above 1120 µM and the IC50 was 550 µM.

As to `COc1cccc(NC(=O)N/C(=C/c2ccc(N(CCC#N)CCC#N)cc2)NC(=O)c2cc([N+](=O)[O-])ccc2Cl)c1`, the EC50 is above 12.3 µM and the IC50 is 11.5 µM.

Take `COc1cc(C2c3cc4c(cc3OC3(OC)COC(=O)C23)OCO4)cc(OC)c1OC(C)=O` (stereo unspecified): the EC50 was above 100 µM and the IC50 is 0.562 µM.

For `Oc1cc2ccccc2c2sc(-c3ccccc3)c(-c3ccccc3)[n+]12`, the EC50 was above 200 µM and the IC50 worked out at 17.8 µM.

Turning to `COC1/C=C/OC2(C)Oc3c(C)c(OC(C)=O)c4c(c3C2=O)C(=O)C=C(NC(=O)/C(C)=C\C=C\C(C)C(OC(C)=O)C(C)C(O)C(C)C(OC(C)=O)C1C)C4=O` (stereo unspecified), the EC50 was above 200 µM and the half-inhibitory concentration (IC50) turned out to be 3.02 µM.

In the case of `COc1ccc(/C=C2\CCC(C)C3=C2N=c2s/c(=C/c4cccc(Br)c4)c(=O)n2C3c2ccc(OC)c(OC)c2)cc1OC` (stereo unspecified), the EC50 is above 50.1 µM and the half-maximal inhibitory concentration (IC50) is above 50.1 µM.

With `O=C(CCCCC1CCSS1)N(C(=O)NC1CCCCC1)C1CCCCC1` (stereo unspecified), the EC50 was above 200 µM and the IC50 was 10.5 µM.
